These results are taken from article doi:10.1101/2025.06.19.660642, “Discovery of orally bioavailable Zika and West Nile Virus antiviral compounds targeting the NS2B-NS3 protease” (bioRxiv, 2025).

The target in one assay is T1, ZIKV NS2B-NS3 protease (Zika virus, UniProt A0A024B7W1).
T1 construct: directed at the co-expressed ZIKV NS2B-NS3 protease
T1 sequence (A0A024B7W1 1503-1680): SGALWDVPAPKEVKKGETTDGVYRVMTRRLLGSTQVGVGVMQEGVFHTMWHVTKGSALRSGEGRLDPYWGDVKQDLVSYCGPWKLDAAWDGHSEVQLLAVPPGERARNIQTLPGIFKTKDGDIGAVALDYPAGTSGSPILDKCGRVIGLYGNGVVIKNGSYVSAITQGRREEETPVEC
T1 sequence (A0A024B7W1 1425-1464): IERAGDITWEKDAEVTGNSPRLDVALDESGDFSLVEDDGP
In words: ZIKV NS2B-NS3 protease biochemical FRET assay. To be noted: Ligand efficiency = pKi / heavy atom count.
As for “O=C(Nc1cc(Cl)cc(C(=O)Nc2ccc3c(c2)CNC3)c1)OCc1ccccc1 [ASAP-0020915]”, the “Ligand efficiency (LE)” value was 0.316.

The same assay, now with this note: ZIKV NS2B-NS3 Ki (uM), library 1, supplement.
`O=C(Nc1cc(Cl)cc(C(=O)NCC2(CO)CCNCC2)c1)OCc1ccccc1` [ASAP-0021096, O=C(Nc1cc(Cl)cc(C(=O)NCC2(CO)CCNCC2)c1)OCc1ccccc1] yielded an inhibitory constant (Ki) above 89.3 µM. Still for that read-out and setting: to `NCc1nc(CNC(=O)c2cc(Cl)cc(NC(=O)OCc3ccccc3)c2)cs1` [ASAP-0021116, NCc1nc(CNC(=O)c2cc(Cl)cc(NC(=O)OCc3ccccc3)c2)cs1] belongs above 89.3 µM. Same read-out and setting: for `CNCc1cccc(NC(=O)c2cc(Cl)cc(NC(=O)OCc3ccccc3)c2)c1` [ASAP-0021616, CNCc1cccc(NC(=O)c2cc(Cl)cc(NC(=O)OCc3ccccc3)c2)c1] the value was 17.6 µM; for `O=C(Nc1cc(Cl)cc(C(=O)NCCC2COCCN2)c1)OCc1ccccc1` (stereo not shown) [ASAP-0022490, O=C(NC1=CC(Cl)=CC(C(=O)NCC[C@H]2COCCN2)=C1)OCC1=CC=CC=C1 ¦&1:14¦], above 89.3 µM. As to `NC[C@H]1CC[C@H](NC(=O)c2cc(Cl)cc(NC(=O)OCc3ccccc3)c2)CC1` [ASAP-0017626, NC[C@H]1CC[C@H](NC(=O)c2cc(Cl)cc(NC(=O)OCc3ccccc3)c2)CC1], the inhibitory constant (Ki) is above 89.3 µM. In turn, `O=C(Nc1cc(Cl)cc(C(=O)Nc2cnc3n2CCNC3)c1)OCc1ccccc1` [ASAP-0021001, O=C(Nc1cc(Cl)cc(C(=O)Nc2cnc3n2CCNC3)c1)OCc1ccccc1] showed a Ki above 89.3 µM.

In turn, `CN1CCc2nc(NC(=O)c3cc(Cl)cc(NC(=O)OCc4ccccc4)c3)sc2C1` [ASAP-0020935, CN1CCc2nc(NC(=O)c3cc(Cl)cc(NC(=O)OCc4ccccc4)c3)sc2C1] returned an inhibition constant Ki above 89.3 µM. In the case of `O=C(Nc1cc(Cl)cc(C(=O)Nc2ccc3c(c2)CNCCO3)c1)OCc1ccccc1` [ASAP-0021552, O=C(Nc1cc(Cl)cc(C(=O)Nc2ccc3c(c2)CNCCO3)c1)OCc1ccccc1], affinity was put at a Ki of 6.9 µM. In turn, `O=C(Nc1cc(Cl)cc(C(=O)Nc2nc3c(s2)CNC3)c1)OCc1ccccc1` [ASAP-0021026, O=C(Nc1cc(Cl)cc(C(=O)Nc2nc3c(s2)CNC3)c1)OCc1ccccc1] registered a Ki of 76.9 µM. The same measure, in the same setting: to `O=C(Nc1cc(Cl)cc(C(=O)Nc2ccnc(OC3CNC3)c2)c1)OCc1ccccc1` [ASAP-0021594, O=C(Nc1cc(Cl)cc(C(=O)Nc2ccnc(OC3CNC3)c2)c1)OCc1ccccc1] belongs 59.3 µM; to `NCc1cn(CCNC(=O)c2cc(Cl)cc(NC(=O)OCc3ccccc3)c2)nn1` [ASAP-0021085, NCc1cn(CCNC(=O)c2cc(Cl)cc(NC(=O)OCc3ccccc3)c2)nn1], above 89.3 µM; to `CN(C(=O)c1cc(Cl)cc(NC(=O)OCc2ccccc2)c1)c1ccc(CN)cc1` [ASAP-0017677, CN(C(=O)c1cc(Cl)cc(NC(=O)OCc2ccccc2)c1)c1ccc(CN)cc1], above 89.3 µM. As for `O=C(Nc1cc(Cl)cc(C(=O)Nc2n[nH]c3c2CNC32CC2)c1)OCc1ccccc1` [ASAP-0021028, O=C(Nc1cc(Cl)cc(C(=O)Nc2n[nH]c3c2CNC32CC2)c1)OCc1ccccc1], the Ki is above 89.3 µM. Still for that read-out and setting: to `Cn1nc2c(c1NC(=O)c1cc(Cl)cc(NC(=O)OCc3ccccc3)c1)CNC2` [ASAP-0020883, Cn1nc2c(c1NC(=O)c1cc(Cl)cc(NC(=O)OCc3ccccc3)c1)CNC2] belongs above 89.3 µM; to `NC1(c2cccc(NC(=O)c3cc(Cl)cc(NC(=O)OCc4ccccc4)c3)c2)CCC1` [ASAP-0017671, NC1(c2cccc(NC(=O)c3cc(Cl)cc(NC(=O)OCc4ccccc4)c3)c2)CCC1], above 89.3 µM; to `CN(C)Cc1csc(NC(=O)c2cc(Cl)cc(NC(=O)OCc3ccccc3)c2)n1` [ASAP-0021243, CN(C)Cc1csc(NC(=O)c2cc(Cl)cc(NC(=O)OCc3ccccc3)c2)n1], above 89.3 µM. Still for that read-out and setting: for `NC[C@H]1CC[C@H](CNC(=O)c2cc(Cl)cc(NC(=O)OCc3ccccc3)c2)CC1` [ASAP-0017744, NC[C@H]1CC[C@H](CNC(=O)c2cc(Cl)cc(NC(=O)OCc3ccccc3)c2)CC1] the value was 23.1 µM. Still for that read-out and setting: to `O=C(Nc1cc(Cl)cc(C(=O)NCc2n[nH]c3c2CNCC3)c1)OCc1ccccc1` [ASAP-0021271, O=C(Nc1cc(Cl)cc(C(=O)NCc2n[nH]c3c2CNCC3)c1)OCc1ccccc1] belongs above 89.3 µM. In turn, `CN1CCn2nc(NC(=O)c3cc(Cl)cc(NC(=O)OCc4ccccc4)c3)cc2C1` [ASAP-0020900, CN1CCn2nc(NC(=O)c3cc(Cl)cc(NC(=O)OCc4ccccc4)c3)cc2C1] displayed a Ki above 89.3 µM. Same read-out and setting: for `O=C(Nc1cc(Cl)cc(C(=O)Nc2ncc(C3CNC3)s2)c1)OCc1ccccc1` [ASAP-0021562, O=C(NC1=CC(Cl)=CC(C(=O)NC2=NC=C(C3CNC3)S2)=C1)OCC1=CC=CC=C1] the value was above 89.3 µM.

In the case of `Cc1cc(CN)cc(NC(=O)c2cc(Cl)cc(NC(=O)OCc3ccccc3)c2)c1` [ASAP-0021201, Cc1cc(CN)cc(NC(=O)c2cc(Cl)cc(NC(=O)OCc3ccccc3)c2)c1], the Ki was 4.63 µM.

The compound `NCCc1nsc(NC(=O)c2cc(Cl)cc(NC(=O)OCc3ccccc3)c2)n1` [ASAP-0021153, NCCc1nsc(NC(=O)c2cc(Cl)cc(NC(=O)OCc3ccccc3)c2)n1] displayed a Ki above 89.3 µM.

The compound `O=C(Nc1cc(Cl)cc(C(=O)Nc2nc3c(s2)CCNC3)c1)OCc1ccccc1` [ASAP-0021029, O=C(Nc1cc(Cl)cc(C(=O)Nc2nc3c(s2)CCNC3)c1)OCc1ccccc1] came in with a Ki of 48 µM. Same read-out and setting: to `NCCNC(=O)c1cc(Cl)cc(NC(=O)OCc2ccccc2)c1` [ASAP-0017736, NCCNC(=O)c1cc(Cl)cc(NC(=O)OCc2ccccc2)c1] belongs above 89.3 µM.

The compound `NCCc1cccc(NC(=O)c2cc(Cl)cc(NC(=O)OCc3ccccc3)c2)c1` [ASAP-0017670, NCCc1cccc(NC(=O)c2cc(Cl)cc(NC(=O)OCc3ccccc3)c2)c1] had an inhibition constant (Ki) of 3.51 µM. On the same count and under the same terms, for `NCC1CCN(C(=O)c2cc(Cl)cc(NC(=O)OCc3ccccc3)c2)CC1` [ASAP-0017689, NCC1CCN(C(=O)c2cc(Cl)cc(NC(=O)OCc3ccccc3)c2)CC1] the value was 87.4 µM.

Take `O=C(Nc1cc(Cl)cc(C(=O)Nc2nccn2C2CNC2)c1)OCc1ccccc1` [ASAP-0021559, O=C(Nc1cc(Cl)cc(C(=O)Nc2nccn2C2CNC2)c1)OCc1ccccc1]: the Ki is above 89.3 µM.

Still in this assay, the particulars now being: ZIKV NS2B-NS3 pKi, library 1, supplement.
As for `NCCCc1cccc(NC(=O)c2cc(Cl)cc(NC(=O)OCc3ccccc3)c2)n1` [ASAP-0021169, NCCCc1cccc(NC(=O)c2cc(Cl)cc(NC(=O)OCc3ccccc3)c2)n1], the Ki is 17 µM.

Still in this assay, the particulars now being: library 1, supplement.
On to `C[C@@H](N)c1ccc(NC(=O)c2cc(Cl)cc(NC(=O)OCc3ccccc3)c2)cc1` [ASAP-0017733, C[C@@H](N)c1ccc(NC(=O)c2cc(Cl)cc(NC(=O)OCc3ccccc3)c2)cc1 ¦&1:1¦], for which the “ZIKV NS2B-NS3 pKi” value worked out at 4.88. `C=CC[C@@]1(NC(=O)c2cc(Cl)cc(NC(=O)OCc3ccccc3)c2)CCNC1` [ASAP-0021490, C=CC[C@@]1(NC(=O)c2cc(Cl)cc(NC(=O)OCc3ccccc3)c2)CCNC1 ¦&1:3¦]: the “ZIKV NS2B-NS3 pKi” value is below 4.05. On to “O=C(Nc1cc(Cl)cc(C(=O)Nc2ccc3c(c2)CNC3)c1)OCc1ccccc1 [ASAP-0020915]”, for which the “ZIKV NS2B-NS3 pKi” value is on record as 6.77.

As to `O=C(Nc1cc(Cl)cc(C(=O)NC[C@@H]2CCNC3(CC3)C2)c1)OCc1ccccc1` [ASAP-0021400, O=C(Nc1cc(Cl)cc(C(=O)NC[C@@H]2CCNC3(CC3)C2)c1)OCc1ccccc1 ¦&1:13¦], the “ZIKV NS2B-NS3 pKi” value is below 4.05.

The assay is the same for the next values; noted with them: library 1, supplement; read-out: ZIKV NS2B-NS3 Ki.
On to `C[C@@H](N)c1ccc(NC(=O)c2cc(Cl)cc(NC(=O)OCc3ccccc3)c2)cc1` [ASAP-0017733, C[C@@H](N)c1ccc(NC(=O)c2cc(Cl)cc(NC(=O)OCc3ccccc3)c2)cc1 ¦&1:1¦], for which the Ki turned out to be 13.1 µM. The same measure, in the same setting: to `C=CC[C@@]1(NC(=O)c2cc(Cl)cc(NC(=O)OCc3ccccc3)c2)CCNC1` [ASAP-0021490, C=CC[C@@]1(NC(=O)c2cc(Cl)cc(NC(=O)OCc3ccccc3)c2)CCNC1 ¦&1:3¦] belongs above 89.3 µM; to “O=C(Nc1cc(Cl)cc(C(=O)Nc2ccc3c(c2)CNC3)c1)OCc1ccccc1 [ASAP-0020915]”, 0.164 µM; to `O=C(Nc1cc(Cl)cc(C(=O)NC[C@@H]2CCNC3(CC3)C2)c1)OCc1ccccc1` [ASAP-0021400, O=C(Nc1cc(Cl)cc(C(=O)NC[C@@H]2CCNC3(CC3)C2)c1)OCc1ccccc1 ¦&1:13¦], above 89.3 µM.

Broadly, the Ki is the equilibrium dissociation constant of an inhibitor or competing ligand from its target.
